Literature values as cited in patent publication US20220409620A1, “REDUCING IMMUNOGENICITY TO PEGLOTICASE” (Horizon Pharma Rheumatology LLC, priority 2016, published 2022).

Test system: patients
Details: patients treated with allopurinol; cited from earlier work

For `Oc1ncnc2[nH]ncc12` [allopurinol], the “patients developing allergic reactions” value is listed as “Approximately 2%” and the severe hypersensitivity syndrome is listed as “about 0.4%”.
